For five molecules, IC50 results are on record in patent US7098208B2, “Inhibitors of Akt activity” (Merck & Co., Inc., priority 2001, dated 2006).

This experiment relates to PKC (mix of isoforms). Briefly: PKC Assay (counter screen). The format is biochemical. The following applies: myelin basic protein substrate; read-out: Counter screens IC50 (μM) PKC. As for the experimental part:
Each PKC assay consists of the following components:
Final assay concentrations were as follows: 0.25 mM EGTA, 0.4 mM CaCl, 20 mM Tris pH 7.5, 10 mM MgCl, 1 mM 2-mercaptoethanol, 0.32 mg/ml phosphatidylserine, 0.032 mg/ml diacylglycerol, 10 μM ^33P-ATP, 70 μg/ml MBP, 10 ng/ml PKC, 0.1 mg/ml BSA.
Assays are performed using 96 deep well assay plates. In each assay well 10 μl of solvent control or appropriate inhibitor dilution with 5 μl ^33P-ATP (components #5 and #3) were premixed. In a separate tube, a mixture containing equal volumes of components #1, #2, #4, and #6 was prepared. The assay reaction was initiated by adding 35 μL of the components #1, #2, #4, and #6 mixture to wells containing ^33P-ATP and inhibitor. The liquid in the assay wells was thoroughly mixed and the assay reactions incubated for 20 minutes at room temperature. The reactions were stopped by adding 100 mM EDTA (50 μl) and 100 mM sodium pyrophosphate (50 μl) and mixing. Phosphorylated MBP was collected on PVDF membranes in 96 well filter plates and quantitated by scintillation counting.
In general terms: Counterscreens check selectivity or assay interference.

The IC50 is the concentration that inhibits the measured activity by half.

Consider `CN(C)CC(C)(C)CNc1nn2c(-c3ccccc3)nnc2cc1C1CCC1` [Compound 1, N′-(7-Cyclobutyl-3-phenyl-[1,2,4]triazolo[4,3-b]pyridazin-6-yl)-2,2,N,N-tetramethyl-propane-1,3-diamine], for which the IC50 is > 40 µM.
As for `CN(C)CC(C)(C)CNc1nn2c(-c3cc(F)cc(F)c3)nnc2cc1C1CCC1` [Compound 2, N′-(7-Cyclobutyl-3-(3,5-difluoro-phenyl)-[1,2,4]triazolo[4,3-b]pyridazin-6-yl)-2,2,N,N-tetramethyl-propane-1,3-diamine], the concentration for half-maximal inhibition (IC50) was > 40 µM.
For the molecule `CN(C)CC(C)(C)CNc1nn2c(-c3ccc(F)c(F)c3)nnc2cc1C1CCC1` [Compound 3, N′-(7-Cyclobutyl-3-(3,4-difluoro-phenyl)-[1,2,4]triazolo[4,3-b]pyridazin-6-yl)-2,2,N,N-tetramethyl-propane-1,3-diamine], the IC50 was > 40 µM.
With `CN(C)CC(C)(C)CNc1nn2c(-c3ccc(F)cc3)nnc2cc1C1CCC1` [Compound 4, N′-(7-Cyclobutyl-3-(4-fluoro-phenyl)-[1,2,4]triazolo[4,3-b]pyridazin-6-yl)-2,2,N,N-tetramethyl-propane-1,3-diamine], the IC50 is > 40 µM.
Take `CN(C)CC(C)(C)CNc1nn2c(-c3cccc(F)c3)nnc2cc1C1CCC1` [Compound 5, N′-(7-Cyclobutyl-3-(3-fluoro-phenyl)-[1,2,4]triazolo[4,3-b]pyridazin-6-yl)-2,2,N,N-tetramethyl-propane-1,3-diamine]: the IC50 was > 40 µM.
